Reference: ChEMBL document CHEMBL4823291, “Discovery of 5,6,7,8-tetrahydropyrido[3,4-d]pyrimidine derivatives as novel selective Axl inhibitors” (Bioorg Med Chem Lett, 2021)
pIC50: −log10 of the molar value.

Columns and labels:
[1] = biological target: T1, Tyrosine-protein kinase receptor UFO (Homo sapiens, UniProt P30530); experiment: Inhibition of Axl (unknown origin) by cell free assay
T1 sequence (P30530 whole entry): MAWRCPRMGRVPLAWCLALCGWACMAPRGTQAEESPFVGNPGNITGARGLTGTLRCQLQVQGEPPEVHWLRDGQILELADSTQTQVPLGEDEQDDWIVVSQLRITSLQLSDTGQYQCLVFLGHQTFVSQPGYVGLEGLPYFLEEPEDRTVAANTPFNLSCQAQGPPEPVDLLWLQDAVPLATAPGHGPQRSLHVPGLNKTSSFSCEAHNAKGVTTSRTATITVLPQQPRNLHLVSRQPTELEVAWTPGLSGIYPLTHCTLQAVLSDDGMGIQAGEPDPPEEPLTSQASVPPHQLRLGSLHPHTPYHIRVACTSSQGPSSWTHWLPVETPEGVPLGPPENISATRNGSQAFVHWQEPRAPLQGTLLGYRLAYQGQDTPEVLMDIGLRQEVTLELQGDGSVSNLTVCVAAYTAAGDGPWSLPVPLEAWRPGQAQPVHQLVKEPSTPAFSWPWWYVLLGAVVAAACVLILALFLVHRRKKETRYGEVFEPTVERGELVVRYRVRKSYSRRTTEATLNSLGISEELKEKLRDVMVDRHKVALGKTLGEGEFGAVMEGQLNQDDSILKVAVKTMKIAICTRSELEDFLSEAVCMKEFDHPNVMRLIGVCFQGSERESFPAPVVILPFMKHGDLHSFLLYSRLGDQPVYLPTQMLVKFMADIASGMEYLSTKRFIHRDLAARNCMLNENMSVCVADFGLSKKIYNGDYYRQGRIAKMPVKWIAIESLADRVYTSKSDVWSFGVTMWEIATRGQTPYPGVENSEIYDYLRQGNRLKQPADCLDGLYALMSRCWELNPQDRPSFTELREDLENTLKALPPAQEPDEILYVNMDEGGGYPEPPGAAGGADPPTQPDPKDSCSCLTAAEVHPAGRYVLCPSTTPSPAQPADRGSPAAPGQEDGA

[2] = biological target: T2, Tyrosine-protein kinase Mer (Homo sapiens, UniProt Q12866); experiment: Inhibition of Mer (unknown origin) by cell free assay
T2 sequence (Q12866 whole entry): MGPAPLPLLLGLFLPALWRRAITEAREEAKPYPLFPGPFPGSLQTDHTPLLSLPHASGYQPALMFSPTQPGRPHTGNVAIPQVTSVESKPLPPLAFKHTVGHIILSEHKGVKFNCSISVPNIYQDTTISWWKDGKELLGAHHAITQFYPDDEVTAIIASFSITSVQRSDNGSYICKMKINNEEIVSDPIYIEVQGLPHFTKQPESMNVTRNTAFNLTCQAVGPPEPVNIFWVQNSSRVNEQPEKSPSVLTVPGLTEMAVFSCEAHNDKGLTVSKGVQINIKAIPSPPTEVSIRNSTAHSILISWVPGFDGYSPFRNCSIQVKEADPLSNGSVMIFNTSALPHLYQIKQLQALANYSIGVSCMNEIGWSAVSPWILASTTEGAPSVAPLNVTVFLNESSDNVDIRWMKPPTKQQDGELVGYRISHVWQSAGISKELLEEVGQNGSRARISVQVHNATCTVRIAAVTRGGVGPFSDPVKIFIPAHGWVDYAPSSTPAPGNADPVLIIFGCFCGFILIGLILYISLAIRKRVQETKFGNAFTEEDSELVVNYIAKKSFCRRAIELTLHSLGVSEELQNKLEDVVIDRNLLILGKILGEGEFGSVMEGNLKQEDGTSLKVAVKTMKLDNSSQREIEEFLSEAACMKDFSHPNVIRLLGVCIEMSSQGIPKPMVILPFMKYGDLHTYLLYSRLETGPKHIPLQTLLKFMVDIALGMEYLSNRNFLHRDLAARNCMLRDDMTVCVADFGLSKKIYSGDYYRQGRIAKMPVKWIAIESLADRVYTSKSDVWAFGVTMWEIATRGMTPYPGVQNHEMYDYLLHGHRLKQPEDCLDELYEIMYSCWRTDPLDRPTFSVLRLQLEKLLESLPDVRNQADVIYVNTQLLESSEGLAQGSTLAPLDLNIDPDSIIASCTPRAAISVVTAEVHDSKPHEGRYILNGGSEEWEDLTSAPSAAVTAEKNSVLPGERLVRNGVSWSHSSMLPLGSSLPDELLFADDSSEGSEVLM

Homo sapiens = species: Homo sapiens; experiment: Ratio of IC50 for Mer (unknown origin) to IC50 for Axl (unknown origin)
[3] = biological target: T3, Tyrosine-protein kinase receptor UFO (Mus musculus, UniProt Q00993); experiment: Inhibition of Axl in mouse BaF3 cells; type: cell-based
T3 sequence (Q00993 whole entry): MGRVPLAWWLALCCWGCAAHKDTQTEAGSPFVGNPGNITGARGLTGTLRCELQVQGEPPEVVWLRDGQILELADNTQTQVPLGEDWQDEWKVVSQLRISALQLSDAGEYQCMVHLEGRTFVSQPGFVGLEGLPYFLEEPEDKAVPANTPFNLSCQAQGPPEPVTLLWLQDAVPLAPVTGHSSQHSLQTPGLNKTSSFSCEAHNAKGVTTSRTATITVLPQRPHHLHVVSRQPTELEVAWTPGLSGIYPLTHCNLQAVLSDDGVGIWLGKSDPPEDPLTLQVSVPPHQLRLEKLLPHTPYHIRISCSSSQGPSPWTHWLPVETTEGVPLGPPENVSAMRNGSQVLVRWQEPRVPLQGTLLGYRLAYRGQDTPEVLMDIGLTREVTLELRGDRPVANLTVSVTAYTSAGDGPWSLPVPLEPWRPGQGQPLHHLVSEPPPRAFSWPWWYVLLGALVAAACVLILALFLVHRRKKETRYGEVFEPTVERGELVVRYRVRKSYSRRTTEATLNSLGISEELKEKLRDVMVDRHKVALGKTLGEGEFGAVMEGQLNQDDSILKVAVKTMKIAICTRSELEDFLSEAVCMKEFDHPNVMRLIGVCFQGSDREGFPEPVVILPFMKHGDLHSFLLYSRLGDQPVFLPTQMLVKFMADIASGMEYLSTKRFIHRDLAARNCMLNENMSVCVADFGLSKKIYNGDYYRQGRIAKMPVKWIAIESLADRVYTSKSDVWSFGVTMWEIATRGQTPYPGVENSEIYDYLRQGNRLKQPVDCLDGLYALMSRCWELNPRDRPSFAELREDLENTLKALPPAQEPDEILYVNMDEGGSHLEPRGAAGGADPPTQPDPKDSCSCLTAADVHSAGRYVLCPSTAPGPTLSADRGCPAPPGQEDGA

[4] = biological target: T4, Tyrosine-protein kinase Mer (Mus musculus, UniProt Q60805); experiment: Inhibition of Mer in mouse BaF3 cells; type: cell-based
T4 sequence (Q60805 whole entry): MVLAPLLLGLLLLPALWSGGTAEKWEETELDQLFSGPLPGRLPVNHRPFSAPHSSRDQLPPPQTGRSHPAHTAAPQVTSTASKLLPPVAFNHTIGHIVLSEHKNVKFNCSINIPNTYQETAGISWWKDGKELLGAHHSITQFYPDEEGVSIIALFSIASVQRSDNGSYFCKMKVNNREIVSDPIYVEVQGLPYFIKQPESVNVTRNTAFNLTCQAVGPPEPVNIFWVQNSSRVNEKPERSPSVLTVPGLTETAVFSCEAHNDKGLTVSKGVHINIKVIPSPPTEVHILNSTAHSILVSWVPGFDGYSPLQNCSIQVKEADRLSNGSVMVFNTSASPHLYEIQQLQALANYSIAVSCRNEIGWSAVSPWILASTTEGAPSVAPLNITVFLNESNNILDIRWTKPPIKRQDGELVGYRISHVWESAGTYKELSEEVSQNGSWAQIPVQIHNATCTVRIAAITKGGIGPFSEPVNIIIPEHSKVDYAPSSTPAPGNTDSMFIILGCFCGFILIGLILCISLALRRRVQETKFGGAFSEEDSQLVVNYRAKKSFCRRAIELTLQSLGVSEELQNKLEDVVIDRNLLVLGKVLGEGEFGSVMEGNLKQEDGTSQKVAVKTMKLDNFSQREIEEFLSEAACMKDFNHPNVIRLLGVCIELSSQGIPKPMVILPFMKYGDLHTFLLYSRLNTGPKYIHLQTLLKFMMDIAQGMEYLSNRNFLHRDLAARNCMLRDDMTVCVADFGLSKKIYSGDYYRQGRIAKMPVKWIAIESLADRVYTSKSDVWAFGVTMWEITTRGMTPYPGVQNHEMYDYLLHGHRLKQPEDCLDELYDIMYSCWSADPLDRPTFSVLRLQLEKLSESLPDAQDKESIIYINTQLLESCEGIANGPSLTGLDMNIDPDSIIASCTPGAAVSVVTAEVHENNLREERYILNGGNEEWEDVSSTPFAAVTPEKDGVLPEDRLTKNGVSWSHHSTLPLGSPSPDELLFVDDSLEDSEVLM

BaF3 = experiment: Ratio of IC50 for Mer in mouse BaF3 cells to IC50 for Axl in mouse BaF3 cells; type: cell-based

| Structure (SMILES) | pIC50 [1] | pIC50 [2] | Ratio IC50 (Homo sapiens) | pIC50 [3] | pIC50 [4] | Ratio IC50 (BaF3) |
| --- | --- | --- | --- | --- | --- | --- |
| CN1CCC(CN2CCc3c(ncnc3Oc3ccc(NC(=O)c4cn(CCF)c(=O)n(-c5ccc(F)cc5)c4=O)cc3F)C2)CC1 | 8.07 | 6.82 | 18 | 7.31 | 6.89 | 2.7 |
| CC(C)n1cc(C(=O)Nc2ccc(Oc3ncnc4c3CN(C(=O)CC3CCN(C)CC3)C4)c(F)c2)c(=O)n(-c2ccc(F)cc2)c1=O | 8.47 | > 8.39 | < 1.2 | 7.77 | 7.41 | 2.3 |
| CC(C)n1cc(C(=O)Nc2ccc(Oc3ncnc4c3CCN(CC3CN(C)C3)C4)c(F)c2)c(=O)n(-c2ccc(F)cc2)c1=O | 8.20 | 7.11 | 12 | 7.66 | 7.04 | 4.2 |
| CN1CCC(CN2CCc3c(ncnc3Oc3ccc(NC(=O)c4cn(C5CCCC5)c(=O)n(-c5ccc(F)cc5)c4=O)cc3F)C2)CC1 | 8.57 | 7.29 | 19 | 8.10 | 7.47 | 4.3 |
| CC(C)n1cc(C(=O)Nc2ccc(Oc3ncnc4c3CCN(C(=O)C3CCN(C)CC3)C4)c(F)c2)c(=O)n(-c2ccc(F)cc2)c1=O | 7.92 | 6.30 | 42 | 6.92 | 6.20 | 5.3 |
| CN1CCC(CN2CCc3c(ncnc3Oc3ccc(NC(=O)c4cn(C5CC5)c(=O)n(-c5ccc(F)cc5)c4=O)cc3F)C2)CC1 | 7.49 | 6.08 | 26 | 6.11 | 5.39 | 5.3 |
| CC(C)n1cc(C(=O)Nc2ccc(Oc3ncnc4c3CN(C(=O)CCN3CCCC3)C4)c(F)c2)c(=O)n(-c2ccc(F)cc2)c1=O | 7.82 | 6.80 | 11 | 6.92 | 6.55 | 2.3 |
| CC(C)n1cc(C(=O)Nc2ccc(Oc3ncnc4c3CCN(C3CN(C)C3)C4)c(F)c2)c(=O)n(-c2ccc(F)cc2)c1=O | 8.42 | 7.57 | 7.1 | 8.28 | 7.62 | 4.5 |
| CC(C)n1cc(C(=O)Nc2ccc(Oc3ncnc4c3CCN(C)C4)c(F)c2)c(=O)n(-c2ccc(F)cc2)c1=O | 8.18 | 6.28 | 80 | 6.96 | 6.24 | – |
| CC(C)n1cc(C(=O)Nc2ccc(Oc3ncnc4c3CN(C(=O)CN3CCOCC3)C4)c(F)c2)c(=O)n(-c2ccc(F)cc2)c1=O | 7.80 | 6.64 | 14 | 6.57 | 6.14 | 2.7 |
| Cc1ccc(-n2c(=O)c(C(=O)Nc3ccc(Oc4ncnc5c4CCN(CC4CCN(C)CC4)C5)c(F)c3)cn(CC3CC3)c2=O)nc1 | 8.28 | 6.57 | 51 | 7.47 | 6.68 | 6.2 |
| CC(C)n1cc(C(=O)Nc2ccc(Oc3ncnc4c3CN(C(=O)CN3CCN(C)CC3)C4)c(F)c2)c(=O)n(-c2ccc(F)cc2)c1=O | 8.22 | 7.48 | 5.5 | 7.38 | 6.96 | 2.6 |
| CC(C)Cn1cc(C(=O)Nc2ccc(Oc3ncnc4c3CCN(CC3CCN(C)CC3)C4)c(F)c2)c(=O)n(-c2ccc(F)cc2)c1=O | 8.26 | 6.96 | 20 | 7.34 | 6.96 | 2.4 |
| CC(C)n1cc(C(=O)Nc2ccc(Oc3ncnc4c3CCN(C3CCN(CC5CC5)CC3)C4)c(F)c2)c(=O)n(-c2ccc(F)cc2)c1=O | 8.46 | 7.47 | 9.7 | 7.70 | 7.10 | 4 |
| CC(C)n1cc(C(=O)Nc2ccc(Oc3ncnc4c3CN(C)C4)c(F)c2)c(=O)n(-c2ccc(F)cc2)c1=O | 7.66 | < 6.00 | > 45 | 6.66 | 5.59 | – |
